Consider one substance from patent publication US20070154965A1, “Chlorotoxin-labeled nanoparticle compositions and methods for targeting primary brain tumors” (priority 2005, published 2007).

The test system of this test is 9L cells. Briefly: Transwell migration (matrigel invasion) assay. The format is cell-based, rat. As to conditions: 4 μg/ml free chlorotoxin, 24 hrs. The procedure:
Transwell migration assay. The assay was performed by a method reported previously to assess the bioactivity of chlorotoxin. See Deshane et al., J. Biol. Chem. 2003, 278:4135-4144, expressly incorporated herein in its entirety. Prior to the experiment, matrigel invasion chamber inserts (BD Biosciences, Bedford, Mass.) of 8 μm pore size were rehydrated. The lower surfaces of the chamber inserts were immersed in 5 μg/ml solution of vitronectin for 8 hours. 9L cells were then plated at a density of 2.5×10^5 cells per chamber. Cells were treated with solutions of 4 μg/ml of chlorotoxin, and 10 μg Fe/ml of NPCs, respectively. The chambers were then incubated in a 37° C. humidified incubator maintained at 5% CO2 for 24 hrs. The cells on the upper inserts were scrubbed off, and the invaded cells were fixed and stained with Diff-Quik stain kit (IMEB INC., Chicago, Ill.). The filters were then detached from the inserts and mounted on glass slides using immersion oil and imaged on a Nikon E800 upright microscope. Relative inhibition of cell invasion was determined through reduction of migrating cells in presence of chlorotoxin and NPCs. Triplicates of each sample were prepared and cell counts were obtained from five random spots on each filter. The data was then averaged and presented as a relative number of invasive cells per treatment.

chlorotoxin: the “inhibition of cell invasion” value is “approximately 88%”.
